Here are results for one compound from patent US20250179029A1, “DEUTERATED RETINOIDAL COMPOUNDS AND SYNTHESIS AND USES THEREOF” (UNIVERSITY OF MARYLAND, BALTIMORE, priority 2022, published 2025).

One data set has as its system MCF7. The data set is described as follows: MTT antiproliferative assay, MCF7 non-TNBC cells. Type of data set: cell-based. The following applies: mean of three independent experiments. As to the method: (§1) Compounds 2, 4, 8 and 9, as well as paclitaxel (PTX) were evaluated over a range of concentrations to examine their antiproliferative activities against two non-TNBC cell lines, MCF7 and SKBR3using the well-established 3-(4,5-dimethylthiazolyl-2)-2,5-diphenyl tetrazolium bromide (MTT) assay.^48,55,56 The parent non-deuterated VNLG-152R (Compound 2) was used as the positive control.
(§2) As presented in Table 1 below, the GI50 values of the deuterated Compounds 4, 8 and 9 against the MCF7 cell are identical to the GI50 value of the parent protio VNLG-152R (Compound 2). In contrast, the SKBR3 cell appears to be more sensitive to the deuterated compounds compared to the parent non-deuterated VNLG-152R (Compound 2). The reason for this difference is not understood at this time. The applicant hypothesizes that the enhanced diffusion of these deuterated molecules across the cell membrane of this cell line may result in enhanced intracellular concentrations and inhibition of its proliferation. Each data point is a mean of replicates from three independent experiments.
(In general: Formazan colour is commonly taken as a measure of viable cells.)

The subject of data set [1] is Mnk1, peIF4E, cyclin D1 in MDA-MB-231 cells. The data set is described as follows: Western blotting of Mnk1 and downstream targets in MDA-MB-231 cells (mechanism study). The data set is classed as cell-based, human. The note with it: MDA-MB-231, 24 hours, FIG. 14B. As to the method: FIGS. 14A and 14B show the in vitro effects of VNLG-152R on synoviolin 1 (SYVN1) and other targets in MDA-MB-231 cells.
After confirming the anti-tumor effect of VNLG-152R, the molecular mechanism of VNLG-152R was studied, in order to help identify potential new molecular targets for treatment. Using an established procedure^70,71, a label-free proteomics analysis was conducted. MDA-MB-231 cells were treated for 24 hours with VNLG-152R in the concentrations indicated in FIGS. 14A and 14B, followed by Western blotting of whole cell lysates.
Background: Immunoblotting shows a protein as a band on a membrane.

For the next data set, the system named is SKBR3. The data set is described as follows: MTT antiproliferative assay, SKBR3 non-TNBC cells. Type of data set: cell-based. The note with it: mean of three independent experiments. The procedure:
as §1, §2

In data set [2] the test system is Mnk1, peIF4E, eIF4E, cyclin D1, Bcl-2, Bax in MDA-MB-231 cells. The data set is described as follows: Western blotting of Mnk1 and downstream targets in MDA-MB-231 cells. Type of data set: cell-based, human. The following applies: MDA-MB-231, 5, 10 and 20 µM, 24 h, Western blot. The text has this:
The applicant had previously reported that the antiproliferative effects of Compound 1 and our other Mnk1/2 degraders in breast cancer cells was due to degradation of Mnk1/2 with consequent depletion of peIF4E and modulation of the downstream molecular targets.^48,55,56 Thus, the deuterated analogs were further examined for their effects on the degradation of Mnk1 and the other related downstream molecular targets in both MDA-MB-231 and MDA-MB-468 TNBC cells by Western blotting analysis.
The human breast cancer cell lines, MDA-MB-231, MDA-MB-468 were procured from ATCC (Manassas, VA) and cultured in the recommended media supplemented with 10% heat-inactivated standard fetal bovine serum (FBS, GIBCO) and 1% penicillin-streptomycin (10,000 U/ml, Life Technologies) at 37° C. and 5% CO2. Primary antibodies against Mnk1, eIF4E, p-eIF4E, Cyclin D1, BCL2, BAX, β-actin, and secondary RP-conjugated anti-rabbit used in the study were procured from Cell Signaling Technology, USA. Cells were lysed with radioimmunoprecipitation assay (RIPA) buffer supplemented with 1× protease inhibitors (Roche, Indianapolis, IN, USA), phosphatase inhibitors (Thermo Scientific, Waltham, MA, USA), 1 mmol/L EDTA and 1 mmol/L PMSF (Sigma) and immunoblotting analyses were performed as described previously.^48,64
The non-deuterated VNLG-152R (Compound 2) and the vehicle, DMSO were used as positive and negative controls, respectively. Equal protein concentrations from breast cancer cells treated with the compounds at different concentration (5, 10 and 20 µM) for 24 h were separated by SDS-PAGE and Western blots probed with the respective protein antibodies. Vehicle treated cells were included as a control, and all blots were reprobed for R-actin for loading control.

The test system of data set [3] is MDA-MB-468 tumor xenograft. Put plainly: Anti-tumor activity in MDA-MB-468 xenograft mouse model. The data set is classed as in vivo. The note with it: 20 mg/kg, PO, 5 days/week, 16 days. As to the method:
(§3) FIGS. 13A-13D show the anti-tumor activity of VNLG-152R, Compound 4, Compound 8, and Compound 9 in xenograft mouse models. […] In FIGS. 13B and 13D, *=p<0.0001.
(§4) After confirming the improved pharmacokinetic parameters of deuterated compounds 4, 8, and 9, the anti-tumor activity of these compounds was tested in xenograft models of MDA-MB-231 and MDA-MB-468. In both models, the mice for each group were treated with either vehicle (control) or the compounds, each at 20 mg/kg, PO, 5 days/week.

A short description of data set [4]: Plasma pharmacokinetics after single oral dose in female CD-1 mice. The data set is classed as in vivo. As to the method:
The PK study was performed by the Certified Research Organization (CRO), Aragen Life Sciences Private Limited (Aragen), Hyderabad, India. All procedures of the present study were in accordance with the guidelines provided by the Committee for the Purpose of Control and Supervision of Experiments on Animals (CPCSEA) as published in The Gazette of India, Jan. 7, 2010. CPCSEA renewal number for institute is 1125/PO/Rc/S/CPCSEA on 13Feb. 2014. Institutional Animal Ethics Committee (IAEC) approval has been taken to initiate the study (IAEC Approval Number: B-011A). The details are presented in the Supplementary Materials.
To minimize the number of mice used in the PK study using a validated LC/MS/MS analysis, both individual (discrete) (set #1: Compound 5, EM=463.2937 and set #2: […], EM=463.2937) and cassette (set #3: Compounds 2, 3, and 7; EMs=459.2686, 462.2874 and 466.3125, respectively, and set #4: Compounds 4, 8, and 9; EMs=460.2749, 464.2999 and 467.3188, respectively) dosing were used.^59,66 The four sets studied were dictated by the exact molecular masses of the compounds as indicated above and in FIG. 3.
The plasma PK profiles were obtained after single oral (PO) dosing of the compounds in mice.
In Table 2, data are presented as the mean of values obtained from three female CD-1 mice. Cmax is the maximum observed plasma concentration. Tmax is the time to maximum concentration. T1/2 is the elimination half-life. AUC represents AUC (0-∞), which is the area under the concentration-time curve from time of dosing extrapolated to infinity. MRT refers to mean residence time. The number in parentheses indicate the rank order from best (1) to worst (8).

Data set [5] has as its system MDA-MB-231 tumor xenograft. Put plainly: Anti-tumor activity in MDA-MB-231 xenograft mouse model. The note with it: 20 mg/kg, PO, 5 days/week, 16 days. The data set is classed as in vivo. As to the method: as §3, §4
Data set [6] relates to androgen-sensitive and castration-resistant human prostate cancer cells. The note with it: androgen-sensitive and castration-resistant human prostate cancer cells in vitro; cited from earlier work.
[7] abbreviates: single p.o. dose 10 mg/kg, female CD-1 mice, plasma.

What is called GI50 is the concentration at which growth is held to half of that of the control. Usually Tmax stands for the time at which the peak concentration occurs. As usually defined, the Cmax is the highest concentration seen after dosing. In the case of `CC1=C(/C=C/C(C)=C/C=C/C(C)=C/C(=O)Nc2ccc(F)cc2)C(C)(C)CCC1n1ccnc1` (racemic) [Compound 2, (±) 4-Imidazolyl-4(H)-(4′-fluoro(phenyl))-(E)-retinamide], growth in the data set with MCF7 was halved (GI50) at 350 ± 110 nM. Also, in data set [1], the Mnk1 level entry is given as “dose-dependent Mnk1 depletion”, the “cyclin D1 level” value is listed as “suppression” and the peIF4E level result was “suppression”. In the data set on SKBR3, this compound yielded a GI50 of 260 ± 120 nM. Besides, in data set [2], the “expression of Mnk1” value is “significantly and dose-dependently reduced”; the “expression of peIF4E” value is “significantly and dose-dependently reduced”; the “expression of total eIF4E” value is “without noticeable effects”. Also, the “reduction of tumor growth” value in data set [3] was 81%. Moreover, the “clearance from systemic circulation (plasma concentration versus time profile)” value in data set [4] (single PO dosing, mice, FIGS. 12A-12C) is reported as “could not be detected after 8 hours”. Also, in data set [4] (setting [7]), the “AUC (0-∞)” value is 22764.75 ng·h/mL, the “MRT (mean residence time)” value stood at 3.02 h, the “T1/2 (elimination half-life)” value was 3.61 h and the Tmax was 0.83 h. Also, in data set [4] (single p.o. dose 10 mg/kg, female CD-1 mice, plasma, mean of three mice), the Cmax was determined as 4651.88 ng/mL. For the same compound, the “reduction of tumor growth” value in data set [5] was 87%. For the same compound, the “anti-proliferative and anti-metastatic activities” value in data set [6] is listed as “potent”.
